Assay results as given in patent US20240382557A1, “INHIBITION OF TUMOR NECROSIS FACTOR, PRO-INFLAMMATORY CYTOKINES AND OTHER INFLAMMATORY RESPONSE MEDIATORS” (Allegro Pharmaceuticals, LLC, priority 2021, published 2024).
Where a SMILES comes first, the peptide text is derived from it. [ ]: non-standard residue; d: D form. Cya = N[C@@H](CS(=O)(=O)O)C(=O)O

Tested on: Human umbilical vein endothelial cells (HUVEC)
Test: RNA-seq gene expression in HUVEC treated with hypoxia and cytokines
Format: cell-based
Source text: Purpose: A chronic pro-inflammatory condition is associated with many ocular diseases, including DED, AMD, and DR. During this process, tissue resident and peripheral immune cells are activated and contribute to formation of a cytotoxic inflammatory state that causes tissue damage and vision loss. In this study, RNA-seq was used to unbiasedly identify the genes regulated by risuteganib treatment in human endothelial cells exposed to hypoxia and cytokines. Analysis of the specific subset of genes regulated by risuteganib enables identification of biological processes and pathways modulated by the oligopeptide.
Methods: Human umbilical vein endothelial cells (HUVEC) were used between passage 3 to 5. All cells were grown at 3% O2 to stimulate endothelial cells into a more angiogenic state. Cells were divided into four treatment groups: control, cytokines for 48 hours, 500 uM risuteganib for 24 hours, and cytokines for 48 hours with 500 uM risuteganib for 24 hours. Cytokine treatment contains both human TNF-a and IL-1b at 1 ng/ml at final concentration. After exposure, cells were collected and their total RNA isolated for RNA-seq. The generated reads were then aligned to human reference genome/transcriptome and gene expression quantified for differential expression analysis and fold change calculation. The list of regulated genes was then used to identify biological processes and pathways that are regulated after risuteganib exposure with cytokine exposure.

[1] = 3% O2, 500 uM risuteganib for 24 hours

With C[C@@H](O)[C@H](NC(=O)[C@H](CS(=O)(=O)O)NC(=O)CNC(=O)[C@H](CCCNC(=N)N)NC(=O)CN)C(=O)N1CCC[C@H]1C(=O)O [Risuteganib, Glycyl-L-arginylglycyl-3-sulfo-L-alanyl-L-threonyl-L-proline] (H-GRG[Cya]TP-OH) the “CCL2 Mean Expression Rate (Normalized as Fraction Control)” value [1] was 0.8696, the “CCL20 Mean Expression Rate (Normalized as Fraction Control)” value [1] was 0.6328 and the “CFH Mean Expression Rate (Normalized as Fraction Control)” value [1] was 0.9706. For the same compound, the “CXCL5 Mean Expression Rate (Normalized as Fraction Control)” value [1] was 1.166, the “CXCL6 Mean Expression Rate (Normalized as Fraction Control)” value [1] was 0.9699 and the “IL6 Mean Expression Rate (Normalized as Fraction Control)” value [1] was 0.9982. For the same compound, the “IL7R Mean Expression Rate (Normalized as Fraction Control)” value [1] was 1.036, the “SELE Mean Expression Rate (Normalized as Fraction Control)” value [1] was 0.7022 and the “TNFAIP3 Mean Expression Rate (Normalized as Fraction Control)” value [1] was 0.946. For the same compound, the “TNFAIP6 Mean Expression Rate (Normalized as Fraction Control)” value [1] was 0, the “TNFRSF11B Mean Expression Rate (Normalized as Fraction Control)” value [1] was 0.8931 and the “genes regulated by both risuteganib and cytokines that are regulated in opposite directions” value (342/403 genes) was 85%. For the same compound, the “reversing the transcriptome changes associated with cytokine treatment (Pearson's r)” value (cytokine-activated condition) was −0.267 and the “number of pathways down-regulated by risuteganib (pathway analysis)” value (incl. cytokine-cytokine receptor interaction, TNF signaling, IL-17 signaling) was 10.
